Tests used:
Test in all cases: stopped-flow UV-vis
Format in all cases: biochemical
Details in all cases: oxidant reacting with Cu(I) enzyme, no polysaccharide substrate; 100 uM enzyme, 500 uM oxidant
[1] = biological target: T1, CvAA9 (Achaetomiella virescens, UniProt A0A223GEC9)
T1 construct: gene AA9A; mature secreted AA9 LPMO, Cu(I) form; host and construct only in supplement

[2] = biological target: T2, TaAA9 (Thermoascus aurantiacus, UniProt G3XAP7)
T2 construct: gene LPMO9A; mature secreted AA9 LPMO, Cu(I) form; host and construct only in supplement
T2 sequence (G3XAP7 whole entry): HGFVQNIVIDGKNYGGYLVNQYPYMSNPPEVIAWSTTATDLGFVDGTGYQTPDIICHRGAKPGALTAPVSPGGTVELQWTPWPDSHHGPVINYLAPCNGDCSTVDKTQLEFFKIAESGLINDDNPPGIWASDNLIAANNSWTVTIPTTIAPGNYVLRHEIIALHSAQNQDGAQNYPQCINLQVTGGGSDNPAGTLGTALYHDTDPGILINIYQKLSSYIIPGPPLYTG

[3] = biological target: T3, LsAA9 (Panus similis, UniProt A0A0S2GKZ1)
T3 construct: gene LPMO9A; mature secreted AA9 LPMO, Cu(I) form; expressed in Escherichia coli (fungal host also compared); details in supplement
T3 sequence (A0A0S2GKZ1 20-254): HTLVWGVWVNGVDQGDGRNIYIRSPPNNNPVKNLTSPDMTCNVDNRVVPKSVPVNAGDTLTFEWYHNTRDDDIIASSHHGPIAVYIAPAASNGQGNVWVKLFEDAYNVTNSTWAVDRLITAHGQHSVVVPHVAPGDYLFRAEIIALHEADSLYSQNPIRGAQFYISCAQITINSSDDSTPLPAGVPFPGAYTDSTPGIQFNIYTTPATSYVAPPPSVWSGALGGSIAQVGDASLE

T1 sequence (A0A223GEC9 23-274): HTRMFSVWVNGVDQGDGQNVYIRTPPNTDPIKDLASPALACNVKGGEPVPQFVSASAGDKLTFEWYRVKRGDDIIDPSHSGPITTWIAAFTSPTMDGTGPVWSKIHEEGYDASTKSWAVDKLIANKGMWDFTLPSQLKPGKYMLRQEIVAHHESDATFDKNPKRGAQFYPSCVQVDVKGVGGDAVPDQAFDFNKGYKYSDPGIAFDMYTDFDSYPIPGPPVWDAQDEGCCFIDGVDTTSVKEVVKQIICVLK

Compound: O=C(OO)c1cccc(Cl)c1 [m-CPBA, meta-chloro-perbenzoic acid]
- stopped-flow UV-vis [1]: transient intermediates generated upon oxidation of CuI–TaAA9, CvAA9, and LsAA9 with mCPBA
- stopped-flow UV-vis [2]: transient intermediates generated upon oxidation of CuI–TaAA9, CvAA9, and LsAA9 with mCPBA
- stopped-flow UV-vis [3]: transient intermediates generated upon oxidation of CuI–TaAA9, CvAA9, and LsAA9 with mCPBA

Reference: PMC10515631, “Mapping the Initial Stages of a Protective Pathway that Enhances Catalytic Turnover by a Lytic Polysaccharide Monooxygenase” (Journal of the American Chemical Society, 2023)
